{"source": "patent US20070184490A1", "about": "“Neuronal nicotinic receptor ligands and their use” (priority 2006, published 2007)", "tested_on": "adults with ADHD", "experiment": "pilot crossover study in adults with ADHD: CAARS, CGI-ADHD-S, HAM-A, HAM-D", "assay_type": "in vivo, human", "from_the_text": "In addition to the primary outcome, the Conner's Adult ADHD Rating Scale (CAARS), secondary rating scales, neuropsychological, and safety assessments were completed. Results: A total of 11 adults with well-characterized ADHD completed this crossover study. […] On the clinical efficacy endpoints, CAARS Total Symptom Score and CAARS Hyperactive/Impulsive score, a shallow inverted V-shaped dose-response curve was observed. However, the dose-response curve for attention and memory effects as measured by computerized cognitive testing seemed dose-linear. No clinically meaningful findings in safety assessments or side effect profile were observed.\nSubjects between 18 and 60 years old who met the DSM-IV-TR criteria for ADHD as assessed by clinical interview and confirmed by the Washington University in St. Louis Kiddie Schedule for Affective Disorders and Schizophrenia (WASH-U-KSADS) diagnostic criteria for ADHD (Orvaschel 1985) (Geller et al 1998) were eligible for inclusion in the study. Furthermore, a score of ≧2 on at least six of nine items in at least one of the subscales of the Conner's Adult ADHD Rating Scale (CAARS) (Conners et al 1999) at screening and Day 1 and a score of ≧4 (i.e., at least moderate severity) on the Clinical Global Impressions-ADHD Severity (CGI-ADHD-S) test (Guy 1976) at screening were required. Exclusion criteria consisted of: smoker or user of nicotine product(s) in the three months prior to enrollment; clinically significant chronic medical conditions; current diagnosis or history of schizoaffective or bipolar disorder, obsessive-compulsive disorder, schizophrenia, or other psychotic disorder; current depression requiring treatment; serious homicidal or suicidal ideation; abnormal baseline laboratory values; drug or alcohol abuse/dependence within the last three months; current use of psychotropics or stimulants; and pregnant or lactating women. The following institutional review boards at Quorum IRB in Seattle, Wash., The Human Research Committee at the Lawrence House in Boston, Mass., the Institutional Board of Research Associates at the NYU School of Medicine in New York, N.Y., the New York Campus, Va. NY Harbor Healthcare Systems Subcommittee for human subjects, research and development subcommittee, and research safety subcommittee in New York, N.Y., the University of Vermont Committee on Human Research in Burlington, Vt., the Scientific Advisory Committee of Burlington, Vt., and the University of Chicago Hospitals IRB in Chicago, Ill. approved the study protocol, and all subjects provided written, informed consent.\nFollowing an initial two-week medication washout and screening period, subjects entered an eight-week double-blind treatment period. […] A study design schematic is provided below in Table 1.\nRaters for the CAARS were trained and certified prior to the start of the study. Investigator-administered CAARS, CGI-ADHD-S, Hamilton Anxiety Scale (HAM-A) (Hamilton 1959), and Hamilton Depression Scale (HAM-D) (Hamilton 1960) were administered to subjects at baseline and at the completion of each treatment period (Days 14, 28, 42, and 56). CMRS, HAM-A, and HAM-D ratings were based on the previous seven days. After being trained, subjects completed a computerized cognitive assessment battery (Simpson et al 1989), which was amended to include the Conner's Continuous Performance Test (Conners 1995) and the Stroop Color Word Test (Jensen and Rohwer 1966), at baseline and at the completion of each treatment period. Attentional tasks (simple and choice reaction time, digit vigilance), selective attention (Conner's CPT), working memory tasks (numeric and spatial working memory, rapid visual information processing), episodic secondary memory (immediate and delayed word recall, word and picture recognition), motor control tasks (tracking), and executive function (the Stroop effect) were among the items assessed. […]"}
{"smiles": "Cc1ncccc1OC[C@@H]1CCCN1", "note": "[ABT-089, 2-methyl-3-(2-(S)-pyrrolidinylmethoxy)pyridine]", "values": [{"measurement": "Hyperactive/impulsive score improvement vs. placebo", "setting": "2 mg and 4 mg doses", "result": "~20", "unit": "%"}, {"measurement": "Inattentive score improvement versus placebo", "setting": "2 mg and 20 mg doses", "result": "approximately 11%"}, {"measurement": "CAARS Hyperactive/Impulsive subscale, least square mean (±SE)", "setting": "2 mg bid", "result": "13.8 (0.9)"}, {"measurement": "CAARS Inattentive subscale, least square mean (±SE)", "setting": "2 mg bid", "result": "18.3 (1.2)"}, {"measurement": "CGI-ADHD-S mean score", "setting": "2 mg dose", "result": "3.92 (0.20)"}, {"measurement": "effect size, CAARS total symptom score vs placebo", "setting": "2 mg twice daily", "result": 0.92}, {"measurement": "CAARS Hyperactive/Impulsive subscale, least square mean (±SE)", "setting": "4 mg bid", "result": "14.5 (0.9)"}, {"measurement": "CAARS Inattentive subscale, least square mean (±SE)", "setting": "4 mg bid", "result": "18.7 (1.2)"}, {"measurement": "CGI-ADHD-S mean score", "setting": "4 mg dose", "result": "4.09 (0.20)"}, {"measurement": "effect size, CAARS total symptom score vs placebo", "setting": "4 mg twice daily", "result": 0.76}, {"measurement": "CAARS Hyperactive/Impulsive subscale, least square mean (±SE)", "setting": "20 mg bid", "result": "15.4 (0.9)"}, {"measurement": "CAARS Inattentive subscale, least square mean (±SE)", "setting": "20 mg bid", "result": "18.1 (1.2)"}, {"measurement": "CGI-ADHD-S mean score", "setting": "20 mg dose", "result": "4.12 (0.20)"}, {"measurement": "effect size, CAARS total symptom score vs placebo", "setting": "20 mg twice daily", "result": 0.71}, {"measurement": "effect on HAM-A or HAM-D scores", "setting": "in vivo", "result": "no effect"}]}
